Measured values published in PubChem BioAssay AID330 (DTP/NCI, 2004).
Several values for one entry are separate records, joined by “and”; a condition that tells them apart may be missing. Equal entries are not always repeated. Toxic doses and inconclusive results are not listed.

Tested on: P388 leukemia ip, CD2F1 mice, survival T/C
Assay: NCI In Vivo Anticancer Drug Screen. Data for tumor model P388 Leukemia (intraperitoneal) in CD2F1 (CDF1) mice
Conditions: endpoint: median survival time, higher = longer survival
Procedure, shortened: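 Mice carrying the transplanted tumor received test compound or vehicle. Survival was recorded in each group, and the value is the treated-group measurement divided by that of the vehicle-treated control group.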

[1] = dose: 12.5 mg/kg/injection, schedule: Q01DX009 (ip), vehicle: saline with Tween-80
[2] = dose: 60.0 mg/kg/injection, schedule: Q01DX005 (ip), vehicle: saline
[3] = dose: 120.0 mg/kg/injection, schedule: Q01DX005 (ip), vehicle: saline
[4] = dose: 50.0 mg/kg/injection, schedule: Q01DX005 (ip), vehicle: Klucel (hydroxypropylcellulose) (HPC)
[5] = dose: 100.0 mg/kg/injection, schedule: Q01DX005 (ip), vehicle: Klucel (hydroxypropylcellulose) (HPC)
[6] = dose: 100.0 mg/kg/injection, schedule: Q04DX003 (ip), vehicle: Klucel (hydroxypropylcellulose) (HPC)
[7] = dose: 50.0 mg/kg/injection, schedule: Q01DX009 (ip), vehicle: saline with Tween-80
[8] = dose: 60.0 mg/kg/injection, schedule: Q01DX005 (ip), vehicle: saline with Tween-80
[9] = dose: 50.0 mg/kg/injection, schedule: Q01DX005 (ip), vehicle: saline with Tween-80
[10] = dose: 200.0 mg/kg/injection, schedule: Q01DX005 (ip), vehicle: Klucel (hydroxypropylcellulose) (HPC)

O=C1C=CC(=O)C2=C1CCCC2
T/C (dose: 2.0 mg/kg/injection, schedule: Q01DX009 (ip), vehicle: saline with Tween-80): 100 % of control
T/C (dose: 2.9 mg/kg/injection, schedule: Q01DX009 (ip), vehicle: saline with Tween-80): 100 % of control
T/C (dose: 3.12 mg/kg/injection, schedule: Q01DX009 (ip), vehicle: saline with Tween-80): 100 % of control
T/C (dose: 4.5 mg/kg/injection, schedule: Q01DX009 (ip), vehicle: saline with Tween-80): 100 % of control
T/C (dose: 6.25 mg/kg/injection, schedule: Q01DX009 (ip), vehicle: saline with Tween-80): 100 % of control
T/C (dose: 6.5 mg/kg/injection, schedule: Q01DX009 (ip), vehicle: saline with Tween-80): 100 % of control
T/C [1]: 102 % of control

CN(N=O)C1=NC2(CCCCC2)P(=O)(NNc2ncccn2)O1 (centres undefined)
T/C [2]: 101 % of control
T/C [3]: 102 % of control

Cc1nc(C(=O)O)cc([N+](=O)[O-])c1C
T/C (dose: 25.0 mg/kg/injection, schedule: Q01DX009 (ip), vehicle: other): 97 % of control
T/C (dose: 50.0 mg/kg/injection, schedule: Q01DX009 (ip), vehicle: other): 97 % of control
T/C (dose: 100.0 mg/kg/injection, schedule: Q01DX009 (ip), vehicle: other): 100 % of control
T/C (dose: 200.0 mg/kg/injection, schedule: Q01DX009 (ip), vehicle: other): 94 % of control

CCCn1c2nc(=O)[nH]c(=O)c-2cc2ccccc21
T/C (dose: 10.0 mg/kg/injection, schedule: Q01DX009 (ip), vehicle: saline with Tween-80): 105 % of control
T/C (dose: 20.0 mg/kg/injection, schedule: Q01DX009 (ip), vehicle: saline with Tween-80): 103 % of control
T/C (dose: 40.0 mg/kg/injection, schedule: Q01DX009 (ip), vehicle: saline with Tween-80): 113 % of control

CC1(C)CC(Nc2ccccc2)=CC(N2CCOCC2)=N1
T/C [4]: 103 % of control
T/C [5]: 100 % of control

COC(=O)CCCOc1ccc(N(CCCl)CCCl)cc1
T/C [6]: 194 % of control
T/C (dose: 200.0 mg/kg/injection, schedule: Q04DX003 (ip), vehicle: Klucel (hydroxypropylcellulose) (HPC)): 223 % of control

Cc1ccc(S(=O)(=O)NC(=O)O/N=C/c2ccc3c(c2)OCO3)cc1
T/C [7]: 100 % of control
T/C (dose: 100.0 mg/kg/injection, schedule: Q01DX009 (ip), vehicle: saline with Tween-80): 97 % of control
T/C (dose: 200.0 mg/kg/injection, schedule: Q01DX009 (ip), vehicle: saline with Tween-80): 100 % of control

COc1cc(NCCCN=C(N)N)c2ncccc2c1
T/C (dose: 1.56 mg/kg/injection, schedule: Q01DX005 (ip), vehicle: saline with Tween-80): 99 % of control
T/C (dose: 3.13 mg/kg/injection, schedule: Q01DX005 (ip), vehicle: saline with Tween-80): 98 % of control
T/C (dose: 6.25 mg/kg/injection, schedule: Q01DX005 (ip), vehicle: saline with Tween-80): 102 % of control and 92 % of control

C[N+](C)(Cn1ncc2ccc([N+](=O)[O-])cc21)Cn1ncc2ccc([N+](=O)[O-])cc21
T/C (dose: 12.5 mg/kg/injection, schedule: Q04DX003 (ip), vehicle: saline with Tween-80): 100 % of control
T/C (dose: 25.0 mg/kg/injection, schedule: Q04DX003 (ip), vehicle: saline with Tween-80): 97 % of control
T/C (dose: 50.0 mg/kg/injection, schedule: Q04DX003 (ip), vehicle: saline with Tween-80): 92 % of control
T/C (dose: 100.0 mg/kg/injection, schedule: Q04DX003 (ip), vehicle: saline with Tween-80): 96 % of control

COc1c(O)cc2oc(-c3ccccc3)c(O)c(=O)c2c1OC
T/C (dose: 25.0 mg/kg/injection, schedule: Q01DX005 (ip), vehicle: Klucel + Tween-80): 89 % of control
T/C (dose: 50.0 mg/kg/injection, schedule: Q01DX005 (ip), vehicle: Klucel + Tween-80): 95 % of control
T/C (dose: 100.0 mg/kg/injection, schedule: Q01DX005 (ip), vehicle: Klucel + Tween-80): 98 % of control
T/C (dose: 200.0 mg/kg/injection, schedule: Q01DX005 (ip), vehicle: Klucel + Tween-80): 95 % of control

NC(=O)NCCSC1(SCCNC(N)=O)CCCCC1
T/C (dose: 50.0 mg/kg/injection, schedule: Q01DX009 (ip), vehicle: Klucel (hydroxypropylcellulose) (HPC)): 107 % of control
T/C (dose: 100.0 mg/kg/injection, schedule: Q01DX009 (ip), vehicle: Klucel (hydroxypropylcellulose) (HPC)): 103 % of control
T/C (dose: 200.0 mg/kg/injection, schedule: Q01DX009 (ip), vehicle: Klucel (hydroxypropylcellulose) (HPC)): 100 % of control
T/C (dose: 400.0 mg/kg/injection, schedule: Q01DX009 (ip), vehicle: Klucel (hydroxypropylcellulose) (HPC)): 99 % of control

O=C(Nc1ccc(NC2=NCCN2)cc1)c1cccc(C(=O)Nc2ccc(NC3=NCCN3)cc2)c1
T/C (dose: 5.0 mg/kg/injection, schedule: Q01DX009 (ip), vehicle: saline with Tween-80): 109 % of control
T/C (dose: 30.0 mg/kg/injection, schedule: Q01DX009 (ip), vehicle: saline with Tween-80): 100 % of control

COc1ccc(/C=N/Nc2nnc3c4ccccc4c4ccccc4c3n2)cc1OC
T/C (dose: 50.0 mg/kg/injection, schedule: Q04DX002 (ip), vehicle: suspension in saline): 86 % of control
T/C (dose: 100.0 mg/kg/injection, schedule: Q04DX002 (ip), vehicle: suspension in saline): 89 % of control
T/C (dose: 200.0 mg/kg/injection, schedule: Q04DX002 (ip), vehicle: suspension in saline): 90 % of control

Cc1ccc(NC(=O)N2c3ccccc3SC2c2ccco2)c(C)c1 (centres undefined)
T/C [1]: 92 % of control
T/C (dose: 25.0 mg/kg/injection, schedule: Q01DX009 (ip), vehicle: saline with Tween-80): 103 % of control
T/C [7]: 86 % of control and 92 % of control

COc1ccc(C(SCC(N)C(=O)O)(c2ccccc2)c2ccccc2)cc1 (centres undefined)
T/C (dose: 66.0 mg/kg/injection, schedule: Q04DX003 (ip), vehicle: Klucel (hydroxypropylcellulose) (HPC)): 105 % of control
T/C [6]: 150 % of control

Cc1ccc(C)c(NC(=O)C#N)c1
T/C [8]: 93 % of control

O=C(O)c1c(C(=O)O)c2cccn2c2c1cnn2-c1ccccc1
T/C [8]: 102 % of control
T/C (dose: 120.0 mg/kg/injection, schedule: Q01DX005 (ip), vehicle: saline with Tween-80): 100 % of control
T/C (dose: 240.0 mg/kg/injection, schedule: Q01DX005 (ip), vehicle: saline with Tween-80): 100 % of control

COC(=O)c1cc(=O)n2cnc3c(ncn3C3OC(CO)C(O)C3O)c2c1 (centres undefined)
T/C (dose: 100.0 mg/kg/injection, schedule: Q04DX003 (ip), vehicle: saline): 98 % of control
T/C (dose: 200.0 mg/kg/injection, schedule: Q04DX003 (ip), vehicle: saline): 100 % of control
T/C (dose: 400.0 mg/kg/injection, schedule: Q04DX003 (ip), vehicle: saline): 100 % of control

COc1ccc(C(c2cc(C(C)(C)C)c(O)c(C(C)(C)C)c2)n2ccnc2)cc1 (centres undefined)
T/C (dose: 50.0 mg/kg/injection, schedule: Q01DX005 (ip), vehicle: distilled water + alcohol): 105 % of control
T/C (dose: 100.0 mg/kg/injection, schedule: Q01DX005 (ip), vehicle: distilled water + alcohol): 103 % of control
T/C (dose: 200.0 mg/kg/injection, schedule: Q01DX005 (ip), vehicle: distilled water + alcohol): 99 % of control

O=C1C(CCl)(CCl)CCC12CNC(Cl)(Cl)C2 (centres undefined)
T/C [9]: 97 % of control
T/C (dose: 100.0 mg/kg/injection, schedule: Q01DX005 (ip), vehicle: saline with Tween-80): 97 % of control
T/C (dose: 200.0 mg/kg/injection, schedule: Q01DX005 (ip), vehicle: saline with Tween-80): 102 % of control

Cc1ccc(SC(=O)c2cccnc2Oc2ccccc2)cc1
T/C [4]: 90 % of control
T/C [5]: 99 % of control
T/C [10]: 96 % of control

C[CH2][Ge]([CH2]C)[CH2]C.C[CH2][Ge]([CH2]C)[CH2]C(=O)OC
T/C [4]: 99 % of control
T/C [5]: 100 % of control
T/C [10]: 100 % of control

CC(C)=NNC1=NC(C)(C)P(=O)(N2CCCC2C(=O)O)S1 (centres undefined)
T/C [2]: 98 % of control
T/C [3]: 104 % of control
T/C (dose: 240.0 mg/kg/injection, schedule: Q01DX005 (ip), vehicle: saline): 102 % of control

COC1=CC(=Nc2cc(Br)c(O)c(Br)c2)C=CC1=O
T/C (dose: 6.25 mg/kg/injection, schedule: Q01DX005 (ip), vehicle: saline): 105 % of control
T/C (dose: 12.5 mg/kg/injection, schedule: Q01DX005 (ip), vehicle: saline): 108 % of control
T/C (dose: 25.0 mg/kg/injection, schedule: Q01DX005 (ip), vehicle: saline): 100 % of control
T/C [9]: 95 % of control
